Literature values, collected in patent US20090114566A1, “METHOD OF UPGRADING HEAVY HYDROCARBON STREAMS TO JET PRODUCTS” (Chevron U.S.A. Inc., priority 2007, published 2009).
Like-named read-outs stand apart in the source and are kept apart here.

Tested on: rats

SMILES | LD50 (rat, in vivo, po) [mg/kg] | LD50 (single oral dose to rats) [mg/kg]
CCOCC(=O)O [ethoxy-acetic acid] | 1292 | 
O=C(O)/C=C/C(=O)O [fumaric acid] | 10700 | 
O=C(O)[C@H](O)[C@@H](O)[C@H](O)[C@H](O)CO [gluconic acid] |  | 10380
O=CC(=O)O [glyoxylic, glyoxylic acid] | 3000 | 
CC(O)C(=O)O (stereo not drawn) [lactic acid] |  | 3543
O=C(O)CC(O)C(=O)O (stereo not drawn) [malic acid] |  | 1600
O=C(O)CC(S)C(=O)O (stereo not drawn) [mercapto-succinic acid] | 800 | 
COCC(=O)O [methoxy-acetic acid] | 3200 | 
O=C(O)CCC(=O)O [succinic acid] | 500 | 
